{"source": "patent EP1336402B1", "about": "“Association of diguanosine tetraphosphate and nicotinic derivatives used for the treatment of capillary disorders, in particular the treatment of hair loss” (Pierre Fabre Dermo-Cosmetique, priority 2002, dated 2003)", "key": {"[1]": {"tested_on": "co-culture de cellules endothéliales humaines et de fibroblastes humains", "test": "in vitro angiogenesis model: co-culture, tubule length quantified by image analysis after 12 days", "type": "cell-based", "conditions": "12 days of culture, untreated control 4150", "excerpt": "Par ailleurs, la composante vasculaire jouant un rôle fondamental dans la croissance du follicule pileux, l'influence des principes actifs précédemment décrits sur ce paramètre a été évaluée sur un modèle d'angiogénèse in vitro.\nLe modèle repose sur une co-culture de cellules endothéliales humaines et de fibroblastes humains (kit angiogénèse Bioprédic International), qui est réalisée en présence ou pas des actifs à tester.\nLes cellules endothéliales migrent à travers la matrice pour former des structures tubulaires, qui sont quantifiées au bout de 12 jours de culture. La quantification de la longueur des capillaires est réalisée par analyse d'image."}, "[2]": {"tested_on": "cellules de la papille dermique du follicule pileux", "test": "cell metabolism of dermal papilla cells in monolayer culture", "type": "cell-based", "conditions": "for augmentation du métabolisme cellulaire: culture mono-couche, concentrations not given", "excerpt": "L'intérêt de l'association de ces deux actifs a été confirmé sur d'autres modèles cellulaires, notamment sur le métabolisme des cellules de la papille dermique du follicule pileux en culture mono-couche, où l'association GP4G + nicotinate de tocophérol a montré une augmentation de + 26,2 % du métabolisme cellulaire, supérieure à celle des actifs testés seuls (12,6 % et 18,3 % respectivement)."}}, "data": [{"compound": "Nc1cc(N2CCCCC2)nc(N)[n+]1[O-]", "note": "[Minoxidil, reference compound]", "values": [{"measurement": "LONGUEUR DES TUBULES PAR CHAMP DE COMPTAGE Moyenne", "setting": "[1]; Minoxidil 25 µg/ml", "result": 7662}]}, {"compound": "diguanosine tétraphosphate [GP4G]", "values": [{"measurement": "LONGUEUR DES TUBULES PAR CHAMP DE COMPTAGE Moyenne", "setting": "[1]; GP4G 0.01 %", "result": 3814}, {"measurement": "LONGUEUR DES TUBULES PAR CHAMP DE COMPTAGE Moyenne", "setting": "[1]; GP4G 0.1 %", "result": 4040}, {"measurement": "LONGUEUR DES TUBULES PAR CHAMP DE COMPTAGE Moyenne", "setting": "[1]; GP4G 1.0 %", "result": 6803}, {"measurement": "augmentation du métabolisme cellulaire", "setting": "[2]", "result": "12,6%"}, {"measurement": "métabolisme des cellules de la papille dermique (CPD)", "setting": "[2]; en présence de GP4G, result in words", "result": "augmentation fonction-dose"}]}, {"compound": "Cc1ccc(C(=O)Nc2ccc(S(=O)(=O)O)c3cc(S(=O)(=O)O)cc(S(=O)(=O)O)c23)cc1NC(=O)c1cccc(NC(=O)Nc2cccc(C(=O)Nc3cc(C(=O)Nc4ccc(S(=O)(=O)O)c5cc(S(=O)(=O)O)cc(S(=O)(=O)O)c45)ccc3C)c2)c1", "note": "[Suramine, reference compound]", "values": [{"measurement": "LONGUEUR DES TUBULES PAR CHAMP DE COMPTAGE Moyenne", "setting": "[1]; Suramine 20 µM", "result": 3072}]}, {"compound": "Cc1c(C)c2c(c(C)c1OC(=O)c1cccnc1)CCC(C)(CCCC(C)CCCC(C)CCCC(C)C)O2", "note": "(stereo not drawn) [Nicotinate de tocophérol, Alpha Tocophéryl Nicotinate]", "values": [{"measurement": "LONGUEUR DES TUBULES PAR CHAMP DE COMPTAGE Moyenne", "setting": "[1]; 1 µg/ml", "result": 4015}, {"measurement": "LONGUEUR DES TUBULES PAR CHAMP DE COMPTAGE Moyenne", "setting": "[1]; 10 µg/ml", "result": 4634}, {"measurement": "LONGUEUR DES TUBULES PAR CHAMP DE COMPTAGE Moyenne", "setting": "[1]; 20 µg/ml", "result": 5363}, {"measurement": "augmentation du métabolisme cellulaire", "setting": "[2]", "result": "18,3%"}]}]}
